Results: patent US20210179636A1, “ANTIBACTERIAL COMPOUNDS” (priority 2016, published 2021)
Values after ≈ are worked out from the molar mass of the structure shown.

Tests used:
[1] = system: Klebsiella pneumoniae ATCC 700603; test: MIC, broth microdilution (CLSI); assay type: cell-based; details: Klebsiella pneumoniae, ATCC700603; K. pneumoniae ATCC 700603; 16-20 h; mode of three experiments; read-out: MIC
[2] = system: Escherichia coli ATCC 25922; test: MIC, broth microdilution (CLSI); assay type: cell-based; details: Escherichia coli, ATCC25922; E. coli ATCC 25922; 16-20 h; mode of three experiments; read-out: MIC
E. coli NCTC 13476 = test: MIC, broth microdilution (CLSI); assay type: cell-based, Escherichia coli; details: Escherichia coli, NCTC13476, 16-20 h, mode of three experiments, read-out: MIC
[3] = system: Acinetobacter baumannii NCTC 13420; test: MIC, broth microdilution (CLSI); assay type: cell-based; details: Acinetobacter baumannii, NCTC13420; A. baumannii NCTC 13420; 16-20 h; mode of three experiments; read-out: MIC
[4] = system: Enterobacter cloacae NCTC 13406; test: MIC, broth microdilution (CLSI); assay type: cell-based; details: Enterobacter cloacae, NCTC13406; E. cloacae NCTC 13406; 16-20 h; mode of three experiments; read-out: MIC
E. coli MG1655 S83L = assay type: cell-based, Escherichia coli; details: compared to the isogenic parent strain E. coli MG1655; S83L mutation on DNA gyrase subunit GyrA
[5] = system: Haemophilus influenzae ATCC 49247; test: MIC, broth microdilution (CLSI); assay type: cell-based; details: Haemophilus influenzae, ATCC49247; H. influenzae ATCC 49247; 16-20 h; mode of three experiments; read-out: MIC
[6] = system: Streptococcus pneumoniae ATCC 49619; test: MIC, broth microdilution (CLSI); assay type: cell-based; details: Streptococcus pneumoniae, ATCC49619; S. pneumoniae ATCC 49619; 16-20 h; mode of three experiments; read-out: MIC
[7] = system: Staphylococcus aureus ATCC 29213; test: MIC, broth microdilution (CLSI); assay type: cell-based; details: Staphylococcus aureus, ATCC29213; S. aureus ATCC 29213; 16-20 h; mode of three experiments; read-out: MIC
[8] = system: Acinetobacter baumannii ATCC 19606; test: MIC, broth microdilution (CLSI); assay type: cell-based; details: Acinetobacter baumannii, ATCC19606; A. baumannii ATCC 19606; 16-20 h; mode of three experiments; read-out: MIC
HepG2 ATCC HB-8065 = test: Human cell viability assay (CellTiter-Glo); assay type: cell-based; details: for IC50: Homo sapiens, HepG2 cell viability, 24 h with compound, range 1-128 μg/mL; for toxicity against HepG2 human hepatic cell line (in words): summary of Table 3
Protocol: Compounds are assessed for potential non-specific cytotoxic effects against a human hepatic cell line (HepG2 ATCC HB-8065). HepG2 cells are seeded at 20,000 cells/well in 96-well microtitre plates in minimal essential medium (MEM) supplemented with a final concentration of 10% FBS and 1 mM sodium pyruvate. After 24 h compound dilutions are prepared in Dulbecco's minimum essential media (DMEM) supplemented with final concentrations of 0.001% FBS, 0.3% bovine albumin and 0.02% HEPES and added to cells. Compounds are tested in two-fold serial dilutions over a final concentration range of 1-128 μg/mL in a final DMSO concentration of 1% vol/vol. Chlorpromazine is used as a positive control. Cells are incubated with compound at 37° C. and 5% CO2 for a further 24 h, after which time the CellTiter-Glo reagent (Promega) is added. Luminescence is measured on a BMG Omega plate reader. Data are analysed using GraphPad Prism software to determine the concentration of compound that inhibits cell viability by fifty percent (IC50).

E. coli MG1655 D87G = assay type: cell-based, Escherichia coli; details: compared to the isogenic parent strain E. coli MG1655; D87G mutation on DNA gyrase subunit GyrA
E. coli MG1655 WT = test: MIC, broth microdilution (CLSI); assay type: cell-based, Escherichia coli; details: Escherichia coli, MG1655
[9] = system: Pseudomonas aeruginosa ATCC 27853; test: MIC, broth microdilution (CLSI); assay type: cell-based; details: Pseudomonas aeruginosa, ATCC27853; P. aeruginosa ATCC 27853; 16-20 h; mode of three experiments; read-out: MIC
E. coli ATCC BAA-2452 = test: MIC, broth microdilution (CLSI); assay type: cell-based, Escherichia coli; details: Escherichia coli, 16-20 h, mode of three experiments, read-out: MIC

| SMILES | MIC [1] | MIC [2] | MIC (E. coli NCTC 13476) | MIC [3] | MIC [4] | Fold increase in MIC against E. coli MG1655 S83L (E. coli MG1655 S83L) | MIC [5] | MIC [6] | MIC [7] | MIC [8] | IC50 (HepG2 ATCC HB-8065) | Fold increase in MIC against E. coli MG1655 D87G (E. coli MG1655 D87G) | MIC (E. coli MG1655 WT) | MIC [9] | MIC (E. coli ATCC BAA-2452) | toxicity against HepG2 human hepatic cell line (in words) (HepG2 ATCC HB-8065) |
| --- | --- | --- | --- | --- | --- | --- | --- | --- | --- | --- | --- | --- | --- | --- | --- | --- |
| N#Cc1ccc2ccc(=O)n(CCN3CC4CN(c5ccc6c(n5)NC(=O)CO6)C(=O)O[C@H]4C3)c2c1 (stereo in doubt) [Compound 17, 1-{2-[(4aS,7aR)-2-oxo-3-{3-oxo-2H,3H,4H-pyrido[3,2-b][1,4]oxazin-6-yl}-octahydropyrrolo[3,4-e][1,3]oxazin-6-yl]ethyl}-2-oxo-1,2-dihydroquinoline-7-carbonitrile] | 10 to 100 µg/mL (≈ 20.6 to 206 µM) | < 1 µg/mL | 1 to 10 µg/mL (≈ 2.06 to 20.6 µM) | < 1 µg/mL | 1 to 10 µg/mL (≈ 2.06 to 20.6 µM) | 0.5 fold | < 1 µg/mL | < 1 µg/mL | < 1 µg/mL | 1 to 10 µg/mL (≈ 2.06 to 20.6 µM) | > 100 µg/mL | 2 fold | < 1 µg/mL | 1 to 10 µg/mL (≈ 2.06 to 20.6 µM) | 1 to 10 µg/mL (≈ 2.06 to 20.6 µM) |  |
| COc1ncc2ccc(=O)n(CCCN3CC4CN(c5ccc6c(n5)NC(=O)CO6)C(=O)OC4C3)c2n1 (stereo not drawn) [Compound 11, rel-(4aS*,7aR*)-6-(3-{2-methoxy-7-oxo-7H,8H-pyrido[2,3-d]pyrimidin-8-yl}propyl)-3-{3-oxo-2H,3H,4H-pyrido[3,2-b][1,4]oxazin-6-yl}-octahydropyrrolo[3,4-e][1,3]oxazin-2-one] | 10 to 100 µg/mL (≈ 19.7 to 197 µM) | 1 to 10 µg/mL (≈ 1.97 to 19.7 µM) |  | 10 to 100 µg/mL (≈ 19.7 to 197 µM) | 1 to 10 µg/mL (≈ 1.97 to 19.7 µM) |  | < 1 µg/mL | < 1 µg/mL | < 1 µg/mL |  | 10 to 100 µg/mL (≈ 19.7 to 197 µM) |  |  | 10 to 100 µg/mL (≈ 19.7 to 197 µM) |  | acceptable level of hepatic toxicity |
| NCCCOc1ccc2ccc(=O)n(CCN3C[C@@H]4CN(c5ccc6c(n5)NC(=O)CO6)C(=O)O[C@H]4C3)c2n1 (relative stereo) [Compound 8] | > 100 µg/mL | 10 to 100 µg/mL (≈ 18.7 to 187 µM) |  | > 100 µg/mL | > 100 µg/mL |  | > 100 µg/mL | 1 to 10 µg/mL (≈ 1.87 to 18.7 µM) | 1 to 10 µg/mL (≈ 1.87 to 18.7 µM) |  | > 100 µg/mL |  |  | 10 to 100 µg/mL (≈ 18.7 to 187 µM) |  |  |
| NCCCOc1ccc2ccc(=O)n(CCCN3CC4CN(c5ccc6c(n5)NC(=O)CO6)C(=O)OC4C3)c2n1 (stereo not drawn) [Compound 6, rel-1-{3-[(4aS*,7aR*)-2-oxo-3-{3-oxo-2H,3H,4H-pyrido[3,2-b][1,4]oxazin-6-yl}-octahydropyrrolo[3,4-e][1,3]oxazin-6-yl]propyl}-7-(3-aminopropoxy)-1,2-dihydro-1,8-naphthyridin-2-one] | > 100 µg/mL | 1 to 10 µg/mL (≈ 1.82 to 18.2 µM) |  | > 100 µg/mL | > 100 µg/mL |  | > 100 µg/mL | 1 to 10 µg/mL (≈ 1.82 to 18.2 µM) | 1 to 10 µg/mL (≈ 1.82 to 18.2 µM) |  | > 100 µg/mL |  |  | 10 to 100 µg/mL (≈ 18.2 to 182 µM) |  |  |
| C[C@H]1COc2c(N3CCN(C)CC3)c(F)cc3c(=O)c(C(=O)O)cn1c23 [LEV, levofloxacin, reference compound] |  |  |  |  |  | 8 fold |  |  |  |  |  | 8 fold |  |  |  |  |
| COc1ccc2ccc(=O)n(CCN3CC4CN(c5ccc6c(n5)NC(=O)CO6)C(=O)OC4C3)c2n1 (stereo not drawn) [Compound 16, rel-1-{2-[(4aR*,7aR*)-2-oxo-3-{3-oxo-2H,3H,4H-pyrido[3,2-b][1,4]oxazin-6-yl}-octahydropyrrolo[3,4-e][1,3]oxazin-6-yl]ethyl}-7-methoxy-1,2-dihydro-1,8-naphthyridin-2-one] | 10 to 100 µg/mL (≈ 20.3 to 203 µM) | < 1 µg/mL |  | < 1 µg/mL | 1 to 10 µg/mL (≈ 2.03 to 20.3 µM) |  | < 1 µg/mL | < 1 µg/mL | < 1 µg/mL | < 1 µg/mL | > 100 µg/mL |  |  | 10 to 100 µg/mL (≈ 20.3 to 203 µM) |  |  |
| N#Cc1ccc2ccc(=O)n(CCCN3C[C@H]4CN(c5ccc6c(n5)NC(=O)CO6)C(=O)O[C@@H]4C3)c2c1 (relative stereo) [Compound 14, rel-1-{3-[(4aS*,7aR*)-2-oxo-3-{3-oxo-2H,3H,4H-pyrido[3,2-b]1,4]oxazin-6-yl}-octahydropyrrolo[3,4-e][1,3]oxazin-6-yl]propyl}-2-oxo-1,2-dihydroquinoline-7-carbonitrile] | 1 to 10 µg/mL (≈ 2 to 20 µM) | < 1 µg/mL | 1 to 10 µg/mL (≈ 2 to 20 µM) | < 1 µg/mL | 1 to 10 µg/mL (≈ 2 to 20 µM) | 4 fold | < 1 µg/mL | < 1 µg/mL | < 1 µg/mL | 1 to 10 µg/mL (≈ 2 to 20 µM) | 10 to 100 µg/mL (≈ 20 to 200 µM) | 2 fold |  | 1 to 10 µg/mL (≈ 2 to 20 µM) | < 1 µg/mL | acceptable level of hepatic toxicity |
| COc1ncc2ccc(=O)n(CCN3C[C@H]4CN(c5ccc6c(n5)NC(=O)CO6)C(=O)O[C@@H]4C3)c2n1 (relative stereo) [Compound 13, rel-(4aS*,7aR*-6-(2-{2-methoxy-7-oxo-7H,8H-pyrido[2,3-d]pyrimidin-8-yl}ethyl)-3-{3-oxo-2H,3H,4H-pyrido[3,2-b][1,4]oxazin-6-yl}-octahydropyrrolo[3,4-e][1,3]oxazin-2-one] | 10 to 100 µg/mL (≈ 20.3 to 203 µM) |  |  | 10 to 100 µg/mL (≈ 20.3 to 203 µM) | 10 to 100 µg/mL (≈ 20.3 to 203 µM) |  | 1 to 10 µg/mL (≈ 2.03 to 20.3 µM) | 1 to 10 µg/mL (≈ 2.03 to 20.3 µM) | < 1 µg/mL |  | 1 to 10 µg/mL (≈ 2.03 to 20.3 µM) |  |  | 10 to 100 µg/mL (≈ 20.3 to 203 µM) |  |  |
| O=C1COc2ccc(N3C[C@H]4CN(CCn5c(=O)ccc6ccc(OCCO)nc65)C[C@@H]4OC3=O)nc2N1 (relative stereo) [Compound 5] | > 100 µg/mL | 10 to 100 µg/mL (≈ 19.1 to 191 µM) |  | > 100 µg/mL | 10 to 100 µg/mL (≈ 19.1 to 191 µM) |  | 1 to 10 µg/mL (≈ 1.91 to 19.1 µM) | 1 to 10 µg/mL (≈ 1.91 to 19.1 µM) | < 1 µg/mL |  | > 100 µg/mL |  |  | 10 to 100 µg/mL (≈ 19.1 to 191 µM) |  |  |
| O=C1COc2ccc(N3C[C@@H]4CN(CCCn5c(=O)ccc6ccccc65)C[C@@H]4OC3=O)nc2N1 (relative stereo) [Compound 4, rel-1-{3-[(4aS*,7aR*)-2-oxo-3-{3-oxo-2H,3H,4H-pyrido[3,2-b][1,4]oxazin-6-yl}-octahydropyrrolo[3,4-e][1,3]oxazin-6-yl]propyl}-1,2-dihydroquinolin-2-one] | 1 to 10 µg/mL (≈ 2.1 to 21 µM) | < 1 µg/mL |  | < 1 µg/mL | < 1 µg/mL |  |  |  | < 1 µg/mL |  | > 100 µg/mL |  |  | 1 to 10 µg/mL (≈ 2.1 to 21 µM) |  |  |
